Patent publication US11078534B2, “Photocleavable nucleotide reagents with high stability” (Roche Molecular Systems, Inc., priority 2017, dated 2021)

Columns and labels:
[1] = Photocleavage by UV-LED irradiation (UPLC-MS); format: physicochemical; settings: UV-LED λmax=393 nm
Protocol: Two aqueous mixtures of dATP-SPh-NPP and ATP-DMNPE (300 μM each) were prepared in sodium phosphate buffer (100 mM, pH 7.0). Both samples were irradiated simultaneously with light from an UV-LED lamp (InGaN, Quantum well, λmax=393 nm, 0.18 W/LED) in open vials without shaking or stirring. After 0, 1, 2, 4, 8, and 16 min. the irradiation was shortly paused for sample removal (20 μL) and subsequent UPLC-MS analysis. The peak areas at 260 nm were used to calculate the percentage of starting material and photocleavage products. The molecular identities of the starting materials and cleavage products were confirmed by mass spectrometry.

polymerase enzyme = test: Real-Time PCR (TaqMan PCR) amplification with caged dATP, with and without UV exposure; format: biochemical; settings: 400 μM dATP-SPh-NPP instead of dATP, 400 cp target DNA
Protocol: Real-Time PCR (TaqMan® PCR) mixtures with a total volume of 50 μL were prepared by combining three components termed PCR master mixture (20 μL), buffer mixture (20 μL), and dNTP mixture (10 μL). All PCR components were prepared from DEPC water. The PCR master mixture contained tricine buffer (pH 8.2), potassium acetate, glycerol, DMSO, detergent, target DNA (400 cp), polymerase aptamer, probe, primers, SYBR green dye, and polymerase enzyme. The buffer mixture contained manganese acetate (8.3 mM) and imidazole (0, 3.0, or 6.0 mM). The dNTP mixture contained dATP (400 μM), dCTP (400 μM), dGTP (400 μM), and dUTP (800 μM). Another dNTP mixture contained dATP-SPh-NPP (400 μM) instead of dATP. The final concentration of DNA target was 400 cp/reaction.
TaqMan® PCRs of equal composition were positioned on two separate sections of a 96-well plate. Each section contained PCR mixtures with regular dNTPs and PCR mixtures containing dATP-SPh-NPP. Each PCR was prepared as triplicate. One section of the plate was covered with aluminum foil, whereas the other section was exposed to light from an UV-LED lamp (InGaN, Quantum well, λmax=393 nm, 0.18 W/LED) for 8.0 min. at room temperature. […] The analysis of PCR growth curves was performed from fluorescence data collected in the Cy5.5 channel, while analysis of melting curves was based on fluorescence data collected in the FAM channel (465-510 nm).

[2] = Thermostability study at 65° C. (UPLC-MS); format: physicochemical; settings: up to 120 h; for degradation at 65° C. (percentage of starting material and degradation products, peak areas at 260 nm): 300 μM, 40% DMSO, 1.0 M potassium acetate
Protocol: An aqueous mixture was prepared, containing 300 μM dATP-SPh-NPP, 40% DMSO and 1.0 M potassium acetate. For reference another mixture with 300 μM dATP replacing dATP-SPh-NPP was prepared. 150 μL of each mixture were incubated at 65° C. in a Thermoshaker. After 0, 2, 18, 25, and 120 h samples of each solution (20 μL) were analyzed by UPLC-MS (Ultra performance liquid chromatography—mass spectrometry). The peak areas at 260 nm were used to calculate the percentage of starting material and degradation products.

[3] = 5′-hydroxyl protecting group on phosphoramidites; cited from earlier work

Compound	irradiation time for full cleavage ([1]; 300 μM, 100 mM sodium phosphate buffer pH 7.0) [min]	photocleavage speed compared to ATP-DMNPE ([1]; both irradiated simultaneously, pH 7.0)	dATP released by irradiation ([1]; irradiation for 5 minutes, 300 μM, 100 mM sodium phosphate buffer pH 7.0) [%]	PCR amplification after UV irradiation (polymerase enzyme; UV light for 8.0 min. at room temperature)	PCR amplification, no UV exposure (polymerase enzyme; no UV exposure)	degradation at 65° C. (percentage of starting material and degradation products, peak areas at 260 nm) [2]	thermostability compared to dATP [2]	increase in photo-deprotection efficiency compared to conventional NPPOC [3] [fold]
thiophenyl o-nitrophenylpropyl dATP [dATP-SPh-NPP]	8	significantly faster	> 90	leads to DNA amplification	prevents PCR amplification	no degradation products were observed	significantly more thermostable than dATP	–
thiophenyl-2-(2-nitrophenyl)-propoxycarbonyl [SPh-NPPOC]	–	–	–	–	–	–	–	12
Nc1ncnc2c1ncn2[C@H]1C[C@H](O)[C@@H](COP(=O)(O)OP(=O)(O)OP(=O)(O)O)O1 [dATP, reference compound]	–	–	–	–	–	quickly degraded to the mono- and diphosphates	–	–
